In publication PMC3476531, “Synergy of Peptide and Sugar in O-GlcNAcase Substrate Recognition” (Chemistry & Biology, 2012):
Substitutions are numbered along the chain they refer to.

Assays:
Assay type in all cases: biochemical
hOGA Y69F = target: T1, hOGA Y69F (Homo sapiens, UniProt O60502, Y69F); experiment: hOGA Y69F mutant glycopeptide hydrolysis, substrate competition assay; details: hOGA point mutant Y69F; competition with 4MU-GlcNAc; 37°C, pH 7.4; triplicate; read-out: Michaelis constant (KM) for hOGA Y69F
T1 construct: GST (N); made in house; host or cells: transiently transfected HEK293 cells
T1 sequence (O60502 1-916 Y69F): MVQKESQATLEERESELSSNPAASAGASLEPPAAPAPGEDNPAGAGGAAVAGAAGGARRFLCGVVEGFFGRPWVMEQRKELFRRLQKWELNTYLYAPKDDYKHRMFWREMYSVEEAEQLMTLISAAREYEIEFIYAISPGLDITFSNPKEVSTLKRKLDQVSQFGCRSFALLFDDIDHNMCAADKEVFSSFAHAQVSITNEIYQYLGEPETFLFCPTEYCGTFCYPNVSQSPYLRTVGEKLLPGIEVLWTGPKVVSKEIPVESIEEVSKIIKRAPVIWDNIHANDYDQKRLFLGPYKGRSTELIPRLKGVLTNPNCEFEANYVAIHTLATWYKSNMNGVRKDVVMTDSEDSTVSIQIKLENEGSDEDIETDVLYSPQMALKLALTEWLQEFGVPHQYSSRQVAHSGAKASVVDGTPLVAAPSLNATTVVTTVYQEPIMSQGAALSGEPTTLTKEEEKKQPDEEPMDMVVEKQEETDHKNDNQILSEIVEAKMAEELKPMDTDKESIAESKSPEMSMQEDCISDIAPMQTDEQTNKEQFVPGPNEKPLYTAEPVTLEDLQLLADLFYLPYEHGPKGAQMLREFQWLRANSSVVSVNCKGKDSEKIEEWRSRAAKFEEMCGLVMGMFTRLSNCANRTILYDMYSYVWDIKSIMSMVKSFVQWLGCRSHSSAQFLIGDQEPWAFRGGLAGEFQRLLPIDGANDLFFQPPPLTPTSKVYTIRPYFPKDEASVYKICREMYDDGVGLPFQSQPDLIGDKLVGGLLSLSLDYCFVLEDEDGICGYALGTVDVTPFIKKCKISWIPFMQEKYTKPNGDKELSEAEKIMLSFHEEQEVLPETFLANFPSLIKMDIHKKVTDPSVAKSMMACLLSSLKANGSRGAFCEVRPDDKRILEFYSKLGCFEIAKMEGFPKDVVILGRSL

hOGA Y69K = target: T2, hOGA Y69K (Homo sapiens, UniProt O60502, Y69K); experiment: hOGA Y69K mutant glycopeptide hydrolysis, substrate competition assay; details: hOGA point mutant Y69K; competition with 4MU-GlcNAc; 37°C, pH 7.4; triplicate; read-out: Michaelis constant (KM) for hOGA Y69K
T2 construct: GST (N); made in house; host or cells: transiently transfected HEK293 cells
T2 sequence (O60502 1-916 Y69K): T1 sequence (O60502 1-916 Y69F) with F69K

hOGA Y69Q = target: T3, hOGA Y69Q (Homo sapiens, UniProt O60502, Y69Q); experiment: hOGA Y69Q mutant glycopeptide hydrolysis, substrate competition assay; details: hOGA point mutant Y69Q; competition with 4MU-GlcNAc; 37°C, pH 7.4; triplicate; read-out: Michaelis constant (KM) for hOGA Y69Q
T3 construct: GST (N); made in house; host or cells: transiently transfected HEK293 cells
T3 sequence (O60502 1-916 Y69Q): T1 sequence (O60502 1-916 Y69F) with F69Q

Substance	Km (hOGA Y69F)	Km (hOGA Y69K)	Km (hOGA Y69Q)
p53 (Ser149) 11: 11-residue O-GlcNAc glycopeptide derived from p53 Ser149 site	53 ± 5 µM	350 ± 20 µM	170 ± 40 µM
PVSVPYS(O-GlcNAc)SAQSTS [TAB1 (Ser395) 13, 13-residue O-GlcNAc glycopeptide derived from TAB1 Ser395 site]	1100 µM	> 4000 µM	3600 µM
VAHS(O-GlcNAc)GAK [hOGA (Ser405) 7, 7-residue O-GlcNAc glycopeptide derived from hOGA Ser405 site]	1200 µM	> 4000 µM	> 4000 µM
